Assay results taken from US9340600B2 (Indiana University Research and Technology Corporation, priority 2012, dated 2016).
*1 amine or outer side, *2 acyl side, *3 side chain or, on linkers, in order; H or OH if unused. Where a SMILES comes first, the peptide text is derived from it. Side-chain parts run from the residue outwards. [ ]: non-standard residue; d: D form. The star is where a group is joined. γGlu = O=C(O)[C@H](CCC(=O)[*:2])N[*:1]; Palmitoyl = CCCCCCCCCCCCCCCC(=O)*; Aib = CC(C)(N)C(=O)O

Tests used:
Assay type in all cases: cell-based
GIP receptor = molecular target: T1, GIP receptor (Homo sapiens, UniProt P48546); assay: cAMP induction, firefly luciferase-based reporter assay in HEK293 cells co-transfected with GIP receptor; settings: EC50 at GIP Receptor, Table 2, analogs of SEQ ID NO: 18 varying at positions 16-21
T1 construct: expressed in transfected cells; host or cells: HEK293
T1 sequence (P48546 22-466): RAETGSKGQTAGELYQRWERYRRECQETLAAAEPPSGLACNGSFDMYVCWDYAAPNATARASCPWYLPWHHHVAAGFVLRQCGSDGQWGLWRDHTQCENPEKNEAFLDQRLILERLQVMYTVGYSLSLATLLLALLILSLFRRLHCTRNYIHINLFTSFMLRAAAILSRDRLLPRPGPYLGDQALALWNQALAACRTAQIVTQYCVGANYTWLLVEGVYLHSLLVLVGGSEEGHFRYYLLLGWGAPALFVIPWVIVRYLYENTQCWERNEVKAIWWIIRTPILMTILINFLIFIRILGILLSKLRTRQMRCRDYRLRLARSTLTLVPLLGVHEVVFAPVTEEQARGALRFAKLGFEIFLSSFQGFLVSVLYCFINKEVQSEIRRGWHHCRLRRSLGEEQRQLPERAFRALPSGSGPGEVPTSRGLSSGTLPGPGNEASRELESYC
Description: (§1) This example describes an exemplary method of testing the biological activity of the peptides of the present disclosures, which method involves assaying cAMP synthesis.

glucagon receptor = molecular target: T2, glucagon receptor (Homo sapiens, UniProt P47871); assay: cAMP induction, firefly luciferase-based reporter assay in HEK293 cells co-transfected with glucagon receptor; settings: EC50 at Glucagon Receptor, Table 2, analogs of SEQ ID NO: 18 varying at positions 16-21
T2 construct: expressed in transfected cells; host or cells: HEK293
T2 sequence (P47871 26-477): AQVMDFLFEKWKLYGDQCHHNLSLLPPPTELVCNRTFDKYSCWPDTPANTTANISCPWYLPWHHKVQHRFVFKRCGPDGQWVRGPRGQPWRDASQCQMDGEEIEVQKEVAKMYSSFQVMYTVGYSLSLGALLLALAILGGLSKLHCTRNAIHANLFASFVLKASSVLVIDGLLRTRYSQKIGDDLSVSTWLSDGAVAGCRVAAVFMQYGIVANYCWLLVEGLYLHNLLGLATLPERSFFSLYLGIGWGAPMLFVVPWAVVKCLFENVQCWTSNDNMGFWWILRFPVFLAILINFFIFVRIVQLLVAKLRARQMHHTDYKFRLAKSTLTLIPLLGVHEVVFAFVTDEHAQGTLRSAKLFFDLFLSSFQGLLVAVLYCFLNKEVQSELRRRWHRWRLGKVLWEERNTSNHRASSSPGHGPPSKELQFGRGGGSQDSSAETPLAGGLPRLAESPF
Description: as §1

GLP-1 receptor = molecular target: T3, GLP-1 receptor (Homo sapiens, UniProt P43220); assay: cAMP induction, firefly luciferase-based reporter assay in HEK293 cells co-transfected with GLP-1 receptor; settings: EC50 at GLP-1 Receptor, Table 2, analogs of SEQ ID NO: 18 varying at positions 16-21
T3 construct: expressed in transfected cells; host or cells: HEK293
T3 sequence (P43220 24-463): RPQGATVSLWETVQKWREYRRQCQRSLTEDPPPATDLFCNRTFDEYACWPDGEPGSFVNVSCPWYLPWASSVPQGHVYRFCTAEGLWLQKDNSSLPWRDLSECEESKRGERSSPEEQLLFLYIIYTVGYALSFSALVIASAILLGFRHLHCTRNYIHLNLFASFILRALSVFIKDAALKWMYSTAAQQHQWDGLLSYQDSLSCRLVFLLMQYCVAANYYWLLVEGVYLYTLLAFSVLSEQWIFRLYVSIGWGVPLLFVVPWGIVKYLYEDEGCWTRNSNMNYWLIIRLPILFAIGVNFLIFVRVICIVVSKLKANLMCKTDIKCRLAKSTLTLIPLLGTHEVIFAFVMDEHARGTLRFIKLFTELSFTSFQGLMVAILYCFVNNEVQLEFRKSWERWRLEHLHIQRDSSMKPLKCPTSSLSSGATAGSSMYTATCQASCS
Description: as §1

In the case of CCCCCCCCCCCCCCCC(=O)N[C@@H](CCC(=O)NCCCC[C@H](NC(=O)[C@H](CC(=O)O)NC(=O)[C@H](CO)NC(=O)[C@@H](NC(=O)[C@H](Cc1ccccc1)NC(=O)[C@@H](NC(=O)CNC(=O)[C@H](CCC(N)=O)NC(=O)C(C)(C)NC(=O)[C@@H](N)Cc1c[nH]cn1)[C@@H](C)O)[C@@H](C)O)C(=O)N[C@@H](CO)C(=O)N[C@@H](CCCCN)C(=O)N[C@@H](Cc1ccc(O)cc1)C(=O)N[C@@H](CC(C)C)C(=O)N[C@@H](CC(=O)O)C(=O)N[C@@H](CCC(=O)O)C(=O)N[C@@H](CCCNC(=N)N)C(=O)N[C@@H](C)C(=O)NC(C)(C)C(=O)N[C@@H](C)C(=O)N[C@@H](CCC(=O)O)C(=O)N[C@@H](Cc1ccccc1)C(=O)N[C@H](C(=O)N[C@@H](CCC(N)=O)C(=O)N[C@@H](Cc1c[nH]c2ccccc12)C(=O)N[C@@H](CC(C)C)C(=O)N[C@@H](CC(C)C)C(=O)N[C@@H](CC(=O)O)C(=O)NCC(=O)NCC(=O)N1CCC[C@H]1C(=O)N[C@@H](CO)C(=O)N[C@@H](CO)C(=O)NCC(=O)N[C@@H](C)C(=O)N1CCC[C@H]1C(=O)N1CCC[C@H]1C(=O)N1CCC[C@H]1C(=O)N[C@@H](CO)C(N)=O)C(C)C)C(=O)O [compound 23] (H-H[Aib]QGTFTSDK([γGlu-Palmitoyl])SKYLDERA[Aib]AEFVQWLLDGGPSSGAPPPS-NH2), the EC50 (GIP receptor) is reported as 13 pM, the EC50 (glucagon receptor) is reported as 261 pM and the EC50 (GLP-1 receptor) is reported as 7 pM.
Molecule CCCCCCCCCCCCCCCC(=O)N[C@@H](CCC(=O)NCCCC[C@H](NC(=O)[C@H](CC(=O)O)NC(=O)[C@H](CO)NC(=O)[C@@H](NC(=O)[C@H](Cc1ccccc1)NC(=O)[C@@H](NC(=O)CNC(=O)[C@H](CCC(N)=O)NC(=O)C(C)(C)NC(=O)[C@@H](N)Cc1c[nH]cn1)[C@@H](C)O)[C@@H](C)O)C(=O)N[C@@H](CO)C(=O)N[C@@H](CCCCN)C(=O)N[C@@H](Cc1ccc(O)cc1)C(=O)N[C@@H](CC(C)C)C(=O)N[C@@H](CC(=O)O)C(=O)NC(C)(C)C(=O)N[C@@H](CCCNC(=N)N)C(=O)N[C@@H](C)C(=O)N[C@@H](C)C(=O)NC(C)(C)C(=O)N[C@@H](CCC(=O)O)C(=O)N[C@@H](Cc1ccccc1)C(=O)N[C@H](C(=O)N[C@@H](CCC(N)=O)C(=O)N[C@@H](Cc1c[nH]c2ccccc12)C(=O)N[C@@H](CC(C)C)C(=O)N[C@@H](CC(C)C)C(=O)N[C@@H](CC(=O)O)C(=O)NCC(=O)NCC(=O)N1CCC[C@H]1C(=O)N[C@@H](CO)C(=O)N[C@@H](CO)C(=O)NCC(=O)N[C@@H](C)C(=O)N1CCC[C@H]1C(=O)N1CCC[C@H]1C(=O)N1CCC[C@H]1C(=O)N[C@@H](CO)C(N)=O)C(C)C)C(=O)O [compound 24] (H-H[Aib]QGTFTSDK([γGlu-Palmitoyl])SKYLD[Aib]RAA[Aib]EFVQWLLDGGPSSGAPPPS-NH2) has an EC50 (GIP receptor) of 5 pM, an EC50 (glucagon receptor) of 2 pM and an EC50 (GLP-1 receptor) of 10 pM.
CCCCCCCCCCCCCCCC(=O)N[C@@H](CCC(=O)NCCCC[C@H](NC(=O)[C@H](CC(=O)O)NC(=O)[C@H](CO)NC(=O)[C@@H](NC(=O)[C@H](Cc1ccccc1)NC(=O)[C@@H](NC(=O)CNC(=O)[C@H](CCC(N)=O)NC(=O)C(C)(C)NC(=O)[C@@H](N)Cc1c[nH]cn1)[C@@H](C)O)[C@@H](C)O)C(=O)N[C@@H](CO)C(=O)N[C@@H](CCCCN)C(=O)N[C@@H](Cc1ccc(O)cc1)C(=O)N[C@@H](CC(C)C)C(=O)N[C@@H](CC(=O)O)C(=O)N[C@@H](Cc1c[nH]cn1)C(=O)N[C@@H](CCCNC(=N)N)C(=O)N[C@@H](C)C(=O)N[C@@H](C)C(=O)NC(C)(C)C(=O)N[C@@H](CCC(=O)O)C(=O)N[C@@H](Cc1ccccc1)C(=O)N[C@H](C(=O)N[C@@H](CCC(N)=O)C(=O)N[C@@H](Cc1c[nH]c2ccccc12)C(=O)N[C@@H](CC(C)C)C(=O)N[C@@H](CC(C)C)C(=O)N[C@@H](CC(=O)O)C(=O)NCC(=O)NCC(=O)N1CCC[C@H]1C(=O)N[C@@H](CO)C(=O)N[C@@H](CO)C(=O)NCC(=O)N[C@@H](C)C(=O)N1CCC[C@H]1C(=O)N1CCC[C@H]1C(=O)N1CCC[C@H]1C(=O)N[C@@H](CO)C(N)=O)C(C)C)C(=O)O [compound 25] (H-H[Aib]QGTFTSDK([γGlu-Palmitoyl])SKYLDHRAA[Aib]EFVQWLLDGGPSSGAPPPS-NH2; N-terminus assumed) gave an EC50 (GIP receptor) of 3 pM, an EC50 (glucagon receptor) of 5 pM and an EC50 (GLP-1 receptor) of 4 pM.
With CCCCCCCCCCCCCCCC(=O)N[C@@H](CCC(=O)NCCCC[C@H](NC(=O)[C@H](CC(=O)O)NC(=O)[C@H](CO)NC(=O)[C@@H](NC(=O)[C@H](Cc1ccccc1)NC(=O)[C@@H](NC(=O)CNC(=O)[C@H](CCC(N)=O)NC(=O)C(C)(C)NC(=O)[C@@H](N)Cc1c[nH]cn1)[C@@H](C)O)[C@@H](C)O)C(=O)N[C@@H](CO)C(=O)N[C@@H](CCCCN)C(=O)N[C@@H](Cc1ccc(O)cc1)C(=O)N[C@@H](CC(C)C)C(=O)N[C@@H](CC(=O)O)C(=O)N[C@@H](CCC(=O)O)C(=O)N[C@@H](CCC(N)=O)C(=O)N[C@@H](C)C(=O)N[C@@H](C)C(=O)NC(C)(C)C(=O)N[C@@H](CCC(=O)O)C(=O)N[C@@H](Cc1ccccc1)C(=O)N[C@H](C(=O)N[C@@H](CCC(N)=O)C(=O)N[C@@H](Cc1c[nH]c2ccccc12)C(=O)N[C@@H](CC(C)C)C(=O)N[C@@H](CC(C)C)C(=O)N[C@@H](CC(=O)O)C(=O)NCC(=O)NCC(=O)N1CCC[C@H]1C(=O)N[C@@H](CO)C(=O)N[C@@H](CO)C(=O)NCC(=O)N[C@@H](C)C(=O)N1CCC[C@H]1C(=O)N1CCC[C@H]1C(=O)N1CCC[C@H]1C(=O)N[C@@H](CO)C(N)=O)C(C)C)C(=O)O [compound 26] (H-H[Aib]QGTFTSDK([γGlu-Palmitoyl])SKYLDEQAA[Aib]EFVQWLLDGGPSSGAPPPS-NH2) the EC50 (GIP receptor) was 1 pM, the EC50 (glucagon receptor) was 4 pM and the EC50 (GLP-1 receptor) was 1 pM.
In the case of CCCCCCCCCCCCCCCC(=O)N[C@@H](CCC(=O)NCCCC[C@H](NC(=O)[C@H](CC(=O)O)NC(=O)[C@H](CO)NC(=O)[C@@H](NC(=O)[C@H](Cc1ccccc1)NC(=O)[C@@H](NC(=O)CNC(=O)[C@H](CCC(N)=O)NC(=O)C(C)(C)NC(=O)[C@@H](N)Cc1c[nH]cn1)[C@@H](C)O)[C@@H](C)O)C(=O)N[C@@H](CO)C(=O)N[C@@H](CCCCN)C(=O)N[C@@H](Cc1ccc(O)cc1)C(=O)N[C@@H](CC(C)C)C(=O)N[C@@H](CC(=O)O)C(=O)N[C@@H](CCC(=O)O)C(=O)N[C@@H](CCCNC(=N)N)C(=O)N[C@@H](C)C(=O)NC(C)(C)C(=O)N[C@@H](CCCCN)C(=O)N[C@@H](CCC(=O)O)C(=O)N[C@@H](Cc1ccccc1)C(=O)N[C@H](C(=O)N[C@@H](CCC(N)=O)C(=O)N[C@@H](Cc1c[nH]c2ccccc12)C(=O)N[C@@H](CC(C)C)C(=O)N[C@@H](CC(C)C)C(=O)N[C@@H](CC(=O)O)C(=O)NCC(=O)NCC(=O)N1CCC[C@H]1C(=O)N[C@@H](CO)C(=O)N[C@@H](CO)C(=O)NCC(=O)N[C@@H](C)C(=O)N1CCC[C@H]1C(=O)N1CCC[C@H]1C(=O)N1CCC[C@H]1C(=O)N[C@@H](CO)C(N)=O)C(C)C)C(=O)O [compound 27] (H-H[Aib]QGTFTSDK([γGlu-Palmitoyl])SKYLDERA[Aib]KEFVQWLLDGGPSSGAPPPS-NH2), the EC50 (GIP receptor) is reported as 4 pM, the EC50 (glucagon receptor) is reported as 165 pM and the EC50 (GLP-1 receptor) is reported as 2 pM.
